Assay [1] concerns the target T1, Zinc finger protein mex-5 (Caenorhabditis elegans, UniProt Q9XUB2).
T1 sequence (Q9XUB2 whole entry): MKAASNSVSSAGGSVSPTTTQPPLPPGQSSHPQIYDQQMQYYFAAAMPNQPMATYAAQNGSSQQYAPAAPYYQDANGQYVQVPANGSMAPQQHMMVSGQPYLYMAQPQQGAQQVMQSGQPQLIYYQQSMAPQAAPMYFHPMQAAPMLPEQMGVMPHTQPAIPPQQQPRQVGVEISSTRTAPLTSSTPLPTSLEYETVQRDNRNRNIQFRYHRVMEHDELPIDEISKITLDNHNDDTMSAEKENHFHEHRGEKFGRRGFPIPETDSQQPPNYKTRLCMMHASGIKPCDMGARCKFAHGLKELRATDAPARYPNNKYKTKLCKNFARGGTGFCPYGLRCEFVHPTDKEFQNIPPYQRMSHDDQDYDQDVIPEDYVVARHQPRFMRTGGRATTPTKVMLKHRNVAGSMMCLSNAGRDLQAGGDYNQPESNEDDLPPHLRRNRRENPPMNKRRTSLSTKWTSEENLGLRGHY
Briefly: MEX-5/TCR-2 RNA interaction inhibitors, dose response, biochemical, C. elegans, fluorescence polarization (AID 1960).

The target of a further assay is T2, Protein RecA (Mycobacterium tuberculosis, UniProt P9WHJ3).
T2 sequence (P9WHJ3 whole entry): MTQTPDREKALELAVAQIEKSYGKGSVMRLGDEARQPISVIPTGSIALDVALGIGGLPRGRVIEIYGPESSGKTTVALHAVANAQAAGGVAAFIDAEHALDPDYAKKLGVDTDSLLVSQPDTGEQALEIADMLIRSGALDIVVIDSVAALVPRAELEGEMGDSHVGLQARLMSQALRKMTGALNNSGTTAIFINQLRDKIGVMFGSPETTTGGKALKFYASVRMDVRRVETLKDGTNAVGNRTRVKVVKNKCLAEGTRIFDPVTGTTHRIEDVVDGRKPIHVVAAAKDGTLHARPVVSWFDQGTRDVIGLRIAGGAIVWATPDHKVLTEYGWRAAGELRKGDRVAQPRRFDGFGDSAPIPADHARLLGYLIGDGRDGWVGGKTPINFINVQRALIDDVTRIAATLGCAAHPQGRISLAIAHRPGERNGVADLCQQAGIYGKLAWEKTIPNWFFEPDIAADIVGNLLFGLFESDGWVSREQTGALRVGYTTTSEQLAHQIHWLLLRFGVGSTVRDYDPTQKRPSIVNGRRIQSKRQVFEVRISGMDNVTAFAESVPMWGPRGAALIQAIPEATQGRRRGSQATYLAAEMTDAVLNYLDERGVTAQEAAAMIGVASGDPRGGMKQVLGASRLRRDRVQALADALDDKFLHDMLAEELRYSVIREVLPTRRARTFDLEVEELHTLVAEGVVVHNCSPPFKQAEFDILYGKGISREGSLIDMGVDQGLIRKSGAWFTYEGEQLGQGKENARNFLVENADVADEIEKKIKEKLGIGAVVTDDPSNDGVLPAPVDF
Briefly: Fluorescence Cell-Free Homogeneous Dose Retest to Identify Inhibitors of RecA-Intein Splicing Activity. [Related pubchem assays (depositor defined):AID2097, AID2223, AID489010, AID492950]. The format is functional.

Assay [2] has as its target T3, Mannose-6-phosphate isomerase (Homo sapiens, UniProt P34949).
T3 sequence (P34949 whole entry): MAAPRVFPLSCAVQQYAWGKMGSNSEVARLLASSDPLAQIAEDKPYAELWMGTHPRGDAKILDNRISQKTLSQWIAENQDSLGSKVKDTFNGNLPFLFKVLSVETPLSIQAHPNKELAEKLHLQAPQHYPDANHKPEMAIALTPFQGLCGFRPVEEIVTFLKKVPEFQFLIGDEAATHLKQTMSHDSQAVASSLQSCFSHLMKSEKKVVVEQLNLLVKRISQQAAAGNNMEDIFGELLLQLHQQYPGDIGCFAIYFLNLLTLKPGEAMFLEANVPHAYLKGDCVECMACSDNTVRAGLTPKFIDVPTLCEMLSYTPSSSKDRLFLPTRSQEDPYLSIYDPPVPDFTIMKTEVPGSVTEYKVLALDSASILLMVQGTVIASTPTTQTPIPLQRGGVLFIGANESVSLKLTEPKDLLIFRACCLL
Briefly: human PMI inhibitors, high substrate, primary screen, biochemical, fluorescence intensity, high mannose 6-phosphate (AID 1220).

In another assay the target is Genome polyprotein (dengue virus type 2, UniProt P29990). Briefly: Dengue-2 NS5 methyltransferase inhibitors, primary screen, biochemical, confirmation dose response (AID 588689). The format is functional.
Chain of Genome polyprotein (P29990 2492-3391 limits assumed): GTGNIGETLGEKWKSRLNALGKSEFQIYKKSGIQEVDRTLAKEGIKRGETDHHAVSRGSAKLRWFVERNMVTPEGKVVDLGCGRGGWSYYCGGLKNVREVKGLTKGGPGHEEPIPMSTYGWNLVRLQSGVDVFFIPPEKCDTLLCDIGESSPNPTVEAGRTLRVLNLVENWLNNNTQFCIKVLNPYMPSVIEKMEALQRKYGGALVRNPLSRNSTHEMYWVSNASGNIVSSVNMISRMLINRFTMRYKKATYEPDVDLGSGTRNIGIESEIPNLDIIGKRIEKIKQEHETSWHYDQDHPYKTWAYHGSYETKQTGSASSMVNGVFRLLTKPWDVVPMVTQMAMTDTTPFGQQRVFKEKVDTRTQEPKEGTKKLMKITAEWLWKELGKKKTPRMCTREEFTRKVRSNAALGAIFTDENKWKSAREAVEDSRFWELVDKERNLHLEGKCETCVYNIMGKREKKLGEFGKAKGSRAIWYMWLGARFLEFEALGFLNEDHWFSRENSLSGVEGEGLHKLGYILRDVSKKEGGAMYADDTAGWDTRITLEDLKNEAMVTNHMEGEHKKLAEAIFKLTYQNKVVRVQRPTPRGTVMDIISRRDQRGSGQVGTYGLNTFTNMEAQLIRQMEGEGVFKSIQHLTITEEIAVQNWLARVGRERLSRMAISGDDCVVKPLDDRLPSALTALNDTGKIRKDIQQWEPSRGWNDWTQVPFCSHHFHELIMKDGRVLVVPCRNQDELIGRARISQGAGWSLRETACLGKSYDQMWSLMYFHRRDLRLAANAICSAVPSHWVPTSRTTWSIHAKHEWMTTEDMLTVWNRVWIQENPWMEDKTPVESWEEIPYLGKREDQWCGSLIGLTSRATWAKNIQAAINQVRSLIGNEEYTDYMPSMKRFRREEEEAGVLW
Assay [3] addresses T4, RNA-binding protein pos-1 (Caenorhabditis elegans, UniProt G5EF15).
T4 sequence (G5EF15 whole entry): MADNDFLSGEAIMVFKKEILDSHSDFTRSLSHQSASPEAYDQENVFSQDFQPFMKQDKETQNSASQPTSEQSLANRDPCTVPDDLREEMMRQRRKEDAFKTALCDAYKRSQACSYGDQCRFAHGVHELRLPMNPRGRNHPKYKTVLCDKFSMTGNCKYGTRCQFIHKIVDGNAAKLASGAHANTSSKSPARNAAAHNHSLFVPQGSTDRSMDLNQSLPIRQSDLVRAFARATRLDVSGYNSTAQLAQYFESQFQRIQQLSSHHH
Put plainly: inhibitors of POS-1/mex-3 RNA binding, dose response, biochemical, fluorescence polarization (AID 1964).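 Also: purified POS-1 fused to maltose binding protein made in E. coli; potency of compounds blocking POS-1 binding to fluorescent RNA.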

Assay [4] addresses Induced myeloid leukemia cell differentiation protein Mcl-1 (Homo sapiens, UniProt Q07820). The format is functional.

Activity calls are given as the source filed them.

Chain of Induced myeloid leukemia cell differentiation protein Mcl-1 (Q07820 whole entry): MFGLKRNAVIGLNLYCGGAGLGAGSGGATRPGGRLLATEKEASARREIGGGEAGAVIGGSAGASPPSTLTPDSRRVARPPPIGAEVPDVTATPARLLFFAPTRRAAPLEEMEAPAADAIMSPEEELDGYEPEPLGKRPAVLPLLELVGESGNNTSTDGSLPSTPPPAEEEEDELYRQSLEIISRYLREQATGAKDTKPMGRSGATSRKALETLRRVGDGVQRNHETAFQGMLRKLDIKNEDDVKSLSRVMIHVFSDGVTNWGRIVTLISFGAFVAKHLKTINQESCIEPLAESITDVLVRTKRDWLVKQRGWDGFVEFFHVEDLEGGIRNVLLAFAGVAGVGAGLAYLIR

Regarding `CNCc1ccccc1Sc1ccc(O)c(O)c1`, the EC50 in assay [1] is 22.6 µM (inconclusive); on Protein RecA, 2.57 µM (active); in assay [3], 34.8 µM (active). Moreover, the IC50 is 25.9 µM (active) in assay [2] and 21.2 µM (active) at Genome polyprotein.
Consider `O=C(O)c1cc(N2N=C(C(F)(F)F)/C(=C/C=C/c3ccco3)C2=O)ccc1Cl`, for which the figures for the IC50 (in assay [2]; on Genome polyprotein; in assay [4]) were > 50 µM (not active), 24.2 µM (active) and 4.69 µM (active), respectively.
With `O=C(/C=C/c1ccco1)NC(=S)Nc1cccc(C(=O)O)c1`, the values for the EC50 in assay [1] and in assay [3] were 8.73 µM (active) and 8.57 µM (active), respectively.
With `Cc1cc(C)c(S(=O)(=O)Nc2cc(SCC(=O)O)c(O)c3ccccc23)cc1C`, the figures for the concentration giving a half-maximal response (EC50) (in assay [1]; on Protein RecA; in assay [3]) were 38.6 µM (active), 0.277 µM (active) and > 300 µM (not active), respectively. Also, in assay [4], the IC50 is 10.5 µM (active).

Broadly, the EC50 is the concentration that produces a half-maximal response. A word on the IC50: it is the concentration at which inhibition is half-maximal.

(Values after ChEMBL document CHEMBL1201862, “PubChem BioAssay data set” (2004).)
